# Source: US4029731A, “Aminophenyltetralin compounds” (Pfizer Inc., priority 1976, dated 1977)
# Values joined by “and” are separate entries in the source; they are usually repeats but may differ in a detail not shown here. Identical values can stand only once. Counter-ions that a name gives are not always drawn.
# How the values were obtained:
# [1] = tested on: reserpine-induced hypothermia in the mouse; assay: Reversal of reserpine-induced hypothermia in the mouse; assay type: in vivo; conditions: 32 mg./kg. i.p., 2 hours after dosing; reserpine 2 mg./kg. s.c. 18 hours before; saline control 25.1° ± 3.2° C.
# Procedure: The 1-amino-4-phenyltetraline final products of Examples III-IX were tested for antidepressant activity by measuring their ability to reverse reserpine-induced hypothermia in the mouse according to the procedure described by B.M. Askew in Life Science, Vol. 2, p. 725 (1963). In this test, all the animals were individually housed in plastic chambers with a cardboard bottom. The mice were injected with reserpine subcutaneously at 2 mg./kg. and retained at an ambient temperature of 20° C. for a period of 18 hours. At this point, their rectal temperatures were initially ascertained and immediately thereafter they were divided into groups of 5-20 animals for testing purposes. Each group then received either saline as a control or the compound to be tested at a dose level of 32 mg./kg., administered intraperitoneally, and the resulting rectal temperatures were measured two hours later. In the table below, the entries are reported as mean rectal temperatures for each compound at the 2-hour mark, together with the number of animals tested in each particular group.
# [2] = tested on: norepinephrine (H^3 NE) uptake into the rat heart; assay: Blockade of tritium-labeled norepinephrine (H^3 NE) uptake into the rat heart in vivo; conditions: 32 μmoles/kg. (8.8 mg./kg.) i.p. 20 minutes before i.v. dl-H^3 NE, each entry a mean from a separate experiment
# Procedure: The 1-amino-4-phenyltetralin final products of Examples IV-V and VIII-IX were tested for antidepressant activity by measuring their ability to block tritium-labeled norepinephrine (H^3 NE) uptake into the rat heart in vivo. For these particular studies, rats in groups of five were pretreated with the control vehicle or the drug to be administered at 32 μmoles/kg. (8.8 mg./kg.), via the intraperitoneal route, followed 20 minutes later by intravenous injection of dl-H^3 NE (having a specific activity of 9.5 c/mmole) at a dose level of 5 μc/kg. The rats were then sacrificed one hour ater administration of said agent (H^3 NE), and the norepinephrine (NE) content present in the heart was subsequently isolated therefrom by means of extraction with alumina, followed by repeated elution of said alumina extracts with 0.05N aqueous hydrochloric acid. The specific activity (cpm/μg.) of H^3 NE in the heart was then determined by measuring the amount of radioactivity (using a liquid scintillation counter) and the NE content (fluorimetrically via an Auto-Analyzer of the type manufactured by the Technicon Instruments Corporation of Chauncey, N.Y.) of the aforesaid aqueous eluates. The results obtained in this manner are presented below in the following table, where the individual entries are each made from a separate experiment and constitute mean relative specific activities expressed in terms of percent control: […]
# [3] = tested on: spontaneous motor activity in mice; assay: Spontaneous motor activity in mice (actophotometer activity counts); assay type: in vivo; conditions: for hyperactive response: same conditions, 0.32, 1.0, 3.2, 10 and 32 mg./kg.
# Procedure: A total of seven mice was employed at each dose level tested (viz., at 0.32, 1.0, 3.2, 10 and 32 mg./kg., i.p., respectively) and these mice were separated one to an activity cage. After an initial one-half hour exposure period (for acclimation purposes), each animal in the cage was treated with a sample of the drug intraperitoneally and immediately thereafter returned to said cage, with activity counts every one-half hour being recorded from that point on.
# [4] = tested on: norepinephrine uptake into both rat heart and rat brain; reserpine hypothermia in mice; assay: Antidepressant activity (norepinephrine uptake into rat heart and rat brain in vivo; reversal of reserpine hypothermia in mice); conditions: base and hydrochloride acid addition salts
# Procedure: The activity of the compounds of the present invention as antidepressants is determined by a study of their ability to supress norepinephrine uptake into both rat heart and rat brain (in vivo), together with a determination of their ability to bring about a reversal of reserpine hypothermia in mice.
compound,measurement,setting,value
"CN[C@H]1CC[C@@H](c2ccccc2)c2ccccc21 (relative stereo) [Cis-isomer of Example IV, cis-dl-N-methyl-4-phenyl-1,2,3,4-tetrahydro-1-naphthylamine hydrochloride]","Mean Rectal Temperature, Temp. (° C.) ±S.D.",[1],27.0 ± 3.4 °C
same,Sp. Activity of Heart H^3 NE (% Control),[2]; hydrochloride,87 % Control and 104 % Control
"N[C@H]1CC[C@@H](c2ccccc2)c2ccccc21 (relative stereo) [Cis-isomer of Example IX, cis-dl-4-phenyl-1,2,3,4-tetrahydro-1-naphthylamine hydrochloride]","Mean Rectal Temperature, Temp. (° C.) ±S.D.",[1],30.8 ± 2.6 °C
same,Sp. Activity of Heart H^3 NE (% Control),[2],93 % Control
"CCN[C@H]1CC[C@@H](c2ccccc2)c2ccccc21 (relative stereo) [Cis-isomer of Example V, cis-dl-N-ethyl-4-phenyl-1,2,3,4-tetrahydro-1-naphthylamine hydrochloride]","Mean Rectal Temperature, Temp. (° C.) ±S.D.",[1],28.0 ± 2.3 °C
same,Sp. Activity of Heart H^3 NE (% Control),[2],144 % Control
"CC(C)N[C@H]1CC[C@@H](c2ccccc2)c2ccccc21 (relative stereo) [Cis-isomer of Example VI, cis-dl-N-isopropyl-4-phenyl-1,2,3,4-tetrahydro-1-naphthylamine hydrochloride]","Mean Rectal Temperature, Temp. (° C.) ±S.D.",[1],27.3 ± 3.6 °C
"c1ccc([C@@H]2CC[C@H](NC3CC3)c3ccccc32)cc1 (relative stereo) [Cis-isomer of Example VII, cis-dl-N-cyclopropyl-4-phenyl-1,2,3,4-tetrahydro-1-naphthylamine hydrochloride]","Mean Rectal Temperature, Temp. (° C.) ±S.D.",[1],25.3 ± 4.4 °C
"CN(C)[C@H]1CC[C@@H](c2ccccc2)c2ccccc21 (relative stereo) [Cis-isomer of Example VIII, cis-dl-N,N-dimethyl-4-phenyl-1,2,3,4-tetrahydro-1-naphthylamine hydrochloride]","Mean Rectal Temperature, Temp. (° C.) ±S.D.",[1],31.4 ± 2.4 °C
same,Sp. Activity of Heart H^3 NE (% Control),[2],120 % Control
"CN[C@@H]1CC[C@@H](c2ccccc2)c2ccccc21 (relative stereo) [Trans-isomer of Example IV, trans-dl-N-methyl-4-phenyl-1,2,3,4-tetrahydro-1-naphthylamine hydrochloride]","Mean Rectal Temperature, Temp. (° C.) ±S.D.",[1],33.5 ± 1.5 °C
same,Sp. Activity of Heart H^3 NE (% Control),[2]; hydrochloride,14 % Control and 19 % Control and 21 % Control and 25 % Control
same,time course / duration of effect,[3]; 32 mg./kg. i.p.,especially long-lived
same,potency compared with dextrorotatory isomer,"[3]; i.p., spontaneous motor activity",somewhat less potent than the aforesaid dextrorotatory isomer
"Cl.N[C@@H]1CC[C@@H](c2ccccc2)c2ccccc21 (relative stereo) [Trans-isomer of Example IX, trans-4-phenyl-1,2,3,4-tetrahydro-1-naphthylamine hydrochloride]","Mean Rectal Temperature, Temp. (° C.) ±S.D.",[1],31.8 ± 2.5 °C
same,Sp. Activity of Heart H^3 NE (% Control),[2]; hydrochloride,60 % Control and 66 % Control
"CCN[C@@H]1CC[C@@H](c2ccccc2)c2ccccc21 (relative stereo) [Trans-isomer of Example V, trans-dl-N-ethyl-4-phenyl-1,2,3,4-tetrahydro-1-naphthylamine hydrochloride]","Mean Rectal Temperature, Temp. (° C.) ±S.D.",[1],33.5 ± 0.9 °C
same,Sp. Activity of Heart H^3 NE (% Control),[2]; hydrochloride,71 % Control and 75 % Control
"CC(C)N[C@@H]1CC[C@@H](c2ccccc2)c2ccccc21 (relative stereo) [Trans-isomer of Example VI, trans-dl-N-isopropyl-4-phenyl-1,2,3,4-tetrahydro-1-naphthylamine hydrochloride]","Mean Rectal Temperature, Temp. (° C.) ±S.D.",[1],32.6 ± 0.7 °C
"c1ccc([C@@H]2CC[C@@H](NC3CC3)c3ccccc32)cc1 (relative stereo) [Trans-isomer of Example VII, trans-dl-N-cyclopropyl-4-phenyl-1,2,3,4-tetrahydro-1-naphthylamine hydrochloride]","Mean Rectal Temperature, Temp. (° C.) ±S.D.",[1],32.6 ± 0.7 °C
"CN(C)[C@@H]1CC[C@@H](c2ccccc2)c2ccccc21 (relative stereo) [Trans-isomer of Example VIII, trans-dl-N,N-dimethyl-4-phenyl-1,2,3,4-tetrahydro-1-naphthylamine hydrochloride]","Mean Rectal Temperature, Temp. (° C.) ±S.D.",[1],33.5 ± 1.4 °C
same,Sp. Activity of Heart H^3 NE (% Control),[2],49 % Control
"N[C@@H]1CC[C@@H](c2ccccc2)c2ccccc21 (relative stereo) [trans-dl-4-phenyl-1,2,3,4-tetrahydro-1-naphthylamine]",degree of antidepressant activity,[4],markedly high degree of antidepressant activity
"CN(C)[C@@H]1CC[C@@H](c2ccccc2)c2ccccc21 (relative stereo) [trans-dl-N,N-dimethyl-4-phenyl-1,2,3,4-tetrahydro-1-naphthylamine]",degree of antidepressant activity,[4],markedly high degree of antidepressant activity
"c1ccc([C@@H]2CC[C@@H](NC3CC3)c3ccccc32)cc1 (relative stereo) [trans-dl-N-cyclopropyl-4-phenyl-1,2,3,4-tetrahydro-1-naphthylamine]",degree of antidepressant activity,[4],markedly high degree of antidepressant activity
"CCN[C@@H]1CC[C@@H](c2ccccc2)c2ccccc21 (relative stereo) [trans-dl-N-ethyl-4-phenyl-1,2,3,4-tetrahydro-1-naphthylamine]",degree of antidepressant activity,[4],markedly high degree of antidepressant activity
"CC(C)N[C@@H]1CC[C@@H](c2ccccc2)c2ccccc21 (relative stereo) [trans-dl-N-isopropyl-4-phenyl-1,2,3,4-tetrahydro-1naphthylamine]",degree of antidepressant activity,[4],markedly high degree of antidepressant activity
"CN[C@H]1CC[C@H](c2ccccc2)c2ccccc21 [Trans-l-isomer of Example III, trans-l-N-methyl-4-phenyl-1,2,3,4-tetrahydro-1-naphthylamine hydrochloride]","Mean Rectal Temperature, Temp. (° C.) ±S.D.",[1],27.5 ± 2.9 °C
same,stimulant effect,[3]; 10 and 32 mg./kg. (i.p.),little evidence of a stimulant effect
"CNCCCN1c2ccccc2CCc2ccccc21 [desmethylimipramine, reference compound]",hyperactive response,[3]; i.p.,failed to elicit any hyperactive response whatsoever
"CNCCCC1c2ccccc2C=Cc2ccccc21 [protriptlyine, protriptyline, reference compound]",hyperactive response,[3]; i.p.,failed to elicit any hyperactive response whatsoever
